From patent publication US20230087439A1, “Nmr-Metabolite-Signature For Identifying Cancer Patients Resistant To Cdk4/6 Inhibitors, Endocrine Therapy and Anti-HER2 Therapy” (Olaris, inc., priority 2018, published 2023)
“And” between values parts separate entries of the source, which are not always exact repeats. Equal entries are not always repeated.

What was measured:
CYP2A6 = biological target: T1, CYP2A6 (Homo sapiens, UniProt P11509); details: off-target effect; cited from earlier work
T1 sequence (P11509 1-494): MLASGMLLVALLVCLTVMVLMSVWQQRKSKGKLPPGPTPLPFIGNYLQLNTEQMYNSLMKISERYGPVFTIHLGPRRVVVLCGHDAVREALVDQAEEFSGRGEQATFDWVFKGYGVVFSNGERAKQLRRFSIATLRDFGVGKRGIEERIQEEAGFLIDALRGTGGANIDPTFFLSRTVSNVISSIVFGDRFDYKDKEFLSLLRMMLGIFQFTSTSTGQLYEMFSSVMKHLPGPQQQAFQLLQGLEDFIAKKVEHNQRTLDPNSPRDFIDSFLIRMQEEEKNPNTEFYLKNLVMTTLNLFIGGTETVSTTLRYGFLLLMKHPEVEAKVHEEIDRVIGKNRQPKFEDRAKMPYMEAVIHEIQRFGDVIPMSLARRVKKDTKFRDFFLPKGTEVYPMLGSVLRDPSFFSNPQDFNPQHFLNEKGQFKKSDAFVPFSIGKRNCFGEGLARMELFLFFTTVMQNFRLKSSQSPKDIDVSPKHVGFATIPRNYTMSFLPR

CYP2C19 = CYP2C19 (Homo sapiens, UniProt P33261); details: off-target effect; cited from earlier work
[1] = test system: adenoid cystic carcinomas of the salivary gland; details: despite increased expression of c-kit; cited from earlier work
ER+/HER2− metastatic BC = test: Retrospective study: tumor response and survival of metastatic BC patients treated with CDK4/6 inhibitors; format: in vivo, human; details: palbociclib N=10, ribociclib N=14; for Non-responders (NR): at least 20% increase in sum of diameters of target tumors after 6 months; for Responders (R): at least 30% decrease in sum of diameters of target tumors after 6 months
Source text: Here we describe a retrospective study analyzing plasma-based metabolites from a baseline (BL) sample and after 2-months (2M) of treatment of 24 women with ER+/HER2− metastatic BC treated with CDK4/6 inhibitors, palbociclib or ribociclib.

Sequence of CYP2C19 (P33261 whole entry): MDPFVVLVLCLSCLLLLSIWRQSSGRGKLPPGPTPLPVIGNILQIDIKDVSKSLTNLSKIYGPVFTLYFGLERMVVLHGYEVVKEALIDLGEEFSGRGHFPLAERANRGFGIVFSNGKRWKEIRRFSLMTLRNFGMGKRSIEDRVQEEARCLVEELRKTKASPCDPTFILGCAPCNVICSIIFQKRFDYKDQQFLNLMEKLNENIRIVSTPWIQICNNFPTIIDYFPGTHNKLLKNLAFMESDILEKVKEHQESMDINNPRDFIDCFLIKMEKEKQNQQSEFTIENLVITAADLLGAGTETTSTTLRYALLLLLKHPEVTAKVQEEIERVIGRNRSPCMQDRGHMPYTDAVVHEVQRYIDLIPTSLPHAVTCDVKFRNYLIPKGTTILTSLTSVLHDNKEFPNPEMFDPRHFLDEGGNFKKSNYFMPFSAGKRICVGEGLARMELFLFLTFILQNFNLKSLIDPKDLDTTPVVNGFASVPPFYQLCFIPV

## N#Cc1ccc(C(c2ccc(C#N)cc2)n2cncn2)cc1 [letrozole]
CYP2A6
  inhibition of CYP2A6: inhibits
CYP2C19
  inhibition of CYP2C19: inhibits

## Cc1ccc(NC(=O)c2ccc(CN3CCN(C)CC3)cc2)cc1Nc1nccc(-c2cccnc2)n1 [imatinib]
[1]
  effect on adenoid cystic carcinomas of the salivary gland: no effect

## CC(=O)c1c(C)c2cnc(Nc3ccc(N4CCNCC4)cn3)nc2n(C2CCCC2)c1=O [palbociclib]
ER+/HER2− metastatic BC
  Non-responders (NR): 3 patients
  Responders (R): 7

## CN(C)C(=O)c1cc2cnc(Nc3ccc(N4CCNCC4)cn3)nc2n1C1CCCC1 [ribociclib]
ER+/HER2− metastatic BC
  Non-responders (NR): 7 patients and 6 patients
  Responders (R): 8
